In patent US11053239B2, “Compounds as BLC-2-selective apoptosis-inducing agents” (Fochon Pharmaceuticals, Ltd., priority 2017, dated 2021):
Read-outs that look alike come from different tables or passages of the source.

Columns and labels:
[1] = tested on: RS4; 11 cells; assay: Cell proliferation assay (MTS), RS4; 11 cells; assay type: cell-based; details: Homo sapiens, RS4-11, 72 h, RS4; 11 (ATCC CRL-1873) cell proliferation, 30000 cells/well, 72 h, MTS; mechanism-based readout of Bcl-2 inhibition; read-out: RS4; 11 IC50
In short: (§1)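 RS4;11 (30000 cells/well, 72 h) and DOHH2 (5000 cells/well, 120 h) cells in RPMI-1640/10% FBS, treated at 37 °C with compound at 1.5–10000 nM final. Viability by MTS (2 h, SDS stop), absorbance 490 nm minus 650 nm reference; IC50 fitted.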

[2] = tested on: DOHH2 cells; assay: Cell proliferation assay (MTS), DOHH2 cells; assay type: cell-based; details: DOHH2 (DSMZ ACC 47) cell proliferation, 5000 cells/well, 120 h, MTS, mechanism-based readout of Bcl-2 inhibition, read-out: DOHH2 IC50
In short: as §1

Compound	IC50 [1] [nM]	IC50 ([2]; Homo sapiens, DOHH-2, 120 h) [nM]	IC50 [2] [nM]
CC(C)OC(=O)N=S1(=O)CCN(C[C@H](C)Nc2ccc(S(=O)(=O)NC(=O)c3ccc(N4CCN(CC5=C(c6ccc(Cl)cc6)CC(C)(C)CC5)CC4)cc3Oc3cnc4[nH]ccc4c3)cc2[N+](=O)[O-])CC1 [Example 73, isopropyl (S)-(4-(2-((4-(N-(2-((1H-pyrrolo[2,3-b]pyridin-5-yl)oxy)-4-(4-((4′-chloro-5,5-dimethyl-3,4,5,6-tetrahydro-[1,1′-biphenyl]-2-yl)methyl)piperazin-1-yl)benzoyl)sulfamoyl)-2-nitrophenyl)amino)propyl)-1-oxido-1λ^6-thiomorpholin-1-ylidene)carbamate]	94	263	
CC(=O)N=S1(=O)CCN(CC[C@H](C)Nc2ccc(S(=O)(=O)NC(=O)c3ccc(N4CCN(CC5=C(c6ccc(Cl)cc6)CC(C)(C)CC5)CC4)cc3Oc3cnc4[nH]ccc4c3)cc2[N+](=O)[O-])CC1 [Example 80]	47	95	
COC(=O)N=S1(=O)CCN(CC[C@H](C)Nc2ccc(S(=O)(=O)NC(=O)c3ccc(N4CCN(CC5=C(c6ccc(Cl)cc6)CC(C)(C)CC5)CC4)cc3Oc3cnc4[nH]ccc4c3)cc2[N+](=O)[O-])CC1 [Example 84, methyl (S)-(4-(3-((4-(N-(2-((1H-pyrrolo[2,3-b]pyridin-5-yl)oxy)-4-(4-((4′-chloro-5,5-dimethyl-3,4,5,6-tetrahydro-[1,1′-biphenyl]-2-yl)methyl)piperazin-1-yl)benzoyl)sulfamoyl)-2-nitrophenyl)amino)butyl)-1-oxido-1λ^6-thiomorpholin-1-ylidene)carbamate]	11	15	
CC(C)C(=O)N=S1(=O)CCN(CC[C@H](C)Nc2ccc(S(=O)(=O)NC(=O)c3ccc(N4CCN(CC5=C(c6ccc(Cl)cc6)CC(C)(C)CC5)CC4)cc3Oc3cnc4[nH]ccc4c3)cc2[N+](=O)[O-])CC1 [Example 82, (S)-2-((1H-pyrrolo[2,3-b]pyridin-5-yl)oxy)-4-(4-((4′-chloro-5,5-dimethyl-3,4,5,6-tetrahydro-[1,1′-biphenyl]-2-yl)methyl)piperazin-1-yl)-N-((4-((4-(1-(isobutyrylimino)-1-oxido-1λ^6-thiomorpholino)butan-2-yl)amino)-3-nitrophenyl)sulfonyl)benzamide]	10	18	
C[C@@H](CCN1CCS(=O)(=NC#N)CC1)Nc1ccc(S(=O)(=O)NC(=O)c2ccc(N3CCN(CC4=C(c5ccc(Cl)cc5)CC(C)(C)CC4)CC3)cc2Oc2cnc3[nH]ccc3c2)cc1[N+](=O)[O-] [Example 95, (S)-2-((1H-pyrrolo[2,3-b]pyridin-5-yl)oxy)-4-(4-((4′-chloro-5,5-dimethyl-3,4,5,6-tetrahydro-[1,1′-biphenyl]-2-yl)methyl)piperazin-1-yl)-N-((4-((4-(1-(cyanoimino)-1-oxido-1λ^6-thiomorpholino)butan-2-yl)amino)-3-nitrophenyl)sulfonyl) benzamide]	22	71	
CCC(=O)N=S1(=O)CCN(CC[C@H](C)Nc2ccc(S(=O)(=O)NC(=O)c3ccc(N4CCN(CC5=C(c6ccc(Cl)cc6)CC(C)(C)CC5)CC4)cc3Oc3cnc4[nH]ccc4c3)cc2[N+](=O)[O-])CC1 [Example 81, (S)-2-((1H-pyrrolo[2,3-b]pyridin-5-yl)oxy)-4-(4-((4′-chloro-5,5-dimethyl-3,4,5,6-tetrahydro-[1,1′-biphenyl]-2-yl)methyl)piperazin-1-yl)-N-((3-nitro-4-((4-(1-oxido-1-(propionylimino)-1λ^6-thiomorpholino)butan-2-yl)amino)phenyl)sulfonyl) benzamide]	7	30	
COC(=O)N=S1(=O)CCN(CC[C@H](C)Nc2ccc(S(=O)(=O)NC(=O)c3ccc(N4CCN(CC5=C(c6ccc(Cl)cc6)CC(C)(C)CC5)CC4)cc3Oc3cnc4[nH]ccc4c3)cc2S(=O)(=O)C(F)(F)F)CC1 [Example 92, methyl (S)-(4-(3-((4-(N-(2-((1H-pyrrolo[2,3-b]pyridin-5-yl)oxy)-4-(4-((4′-chloro-5,5-dimethyl-3,4,5,6-tetrahydro-[1,1′-biphenyl]-2-yl)methyl)piperazin-1-yl)benzoyl)sulfamoyl)-2-((trifluoromethyl)sulfonyl)phenyl)amino)butyl)-1-oxido-1λ^6-thiomorpholin-1-ylidene) carbamate]	109	53	

Now from value to compound, other results behind:

IC50 [1] [nM]	Compound	IC50 ([2]; Homo sapiens, DOHH-2, 120 h) [nM]	IC50 [2] [nM]
14	C[C@@H](CCN1CCS(=O)(=NC2CC2)CC1)Nc1ccc(S(=O)(=O)NC(=O)c2ccc(N3CCN(CC4=C(c5ccc(Cl)cc5)CC(C)(C)CC4)CC3)cc2Oc2cnc3[nH]ccc3c2)cc1[N+](=O)[O-] [Example 79, (S)-2-((1H-pyrrolo[2,3-b]pyridin-5-yl)oxy)-4-(4-((4′-chloro-5,5-dimethyl-3,4,5,6-tetrahydro-[1,1′-biphenyl]-2-yl)methyl)piperazin-1-yl)-N-((4-((4-(1-(cyclopropylimino)-1-oxido-1λ^6-thiomorpholino)butan-2-yl)amino)-3-nitrophenyl)sulfonyl)benzamide]	11	
7	CC1(C)CCC(CN2CCN(c3ccc(C(=O)NS(=O)(=O)c4ccc(NCC5CCC(N=S6(=O)CCCC6)CC5)c([N+](=O)[O-])c4)c(Oc4cnc5[nH]ccc5c4)c3)CC2)=C(c2ccc(Cl)cc2)C1 (stereo not drawn) [Example 53, 2-((1H-pyrrolo[2,3-b]pyridin-5-yl)oxy)-4-(4-((4′-chloro-5,5-dimethyl-3,4,5,6-tetrahydro-[1,1′-biphenyl]-2-yl)methyl)piperazin-1-yl)-N-((3-nitro-4-(((4-((1-oxidotetrahydro-1λ^6-thiophen-1-ylidene)amino)cyclohexyl)methyl)amino)phenyl)sulfonyl)benzamide]	11	
27	CN=S1(=O)CCN(CC[C@H](C)Nc2ccc(S(=O)(=O)NC(=O)c3ccc(N4CCN(CC5=C(c6ccc(Cl)cc6)CC(C)(C)CC5)CC4)cc3Oc3cnc4[nH]ccc4c3)cc2[N+](=O)[O-])CC1 [Example 94, (S)-2-((1H-pyrrolo[2,3-b]pyridin-5-yl)oxy)-4-(4-((4′-chloro-5,5-dimethyl-3,4,5,6-tetrahydro-[1,1′-biphenyl]-2-yl)methyl)piperazin-1-yl)-N-((4-((4-(1-(methylimino)-1-oxido-1λ^6-thiomorpholino)butan-2-yl)amino)-3-nitrophenyl)sulfonyl) benzamide]	15	
36	C[C@@H](CN1CCS(=O)(=NC#N)CC1)Nc1ccc(S(=O)(=O)NC(=O)c2ccc(N3CCN(CC4=C(c5ccc(Cl)cc5)CC(C)(C)CC4)CC3)cc2Oc2cnc3[nH]ccc3c2)cc1[N+](=O)[O-] [Example 6, (S)-2-((1H-pyrrolo[2,3-b]pyridin-5-yl)oxy)-4-(4-((4′-chloro-5,5-dimethyl-3,4,5,6-tetrahydro-[1,1′-biphenyl]-2-yl)methyl)piperazin-1-yl)-N-((4-((1-(1-(cyanoimino)-1-oxido-1λ^6-thiomorpholino)propan-2-yl)amino)-3-nitrophenyl)sulfonyl)benzamide]	150	
119	C[C@@H](CN1CCS(=N)(=O)CC1)Nc1ccc(S(=O)(=O)NC(=O)c2ccc(N3CCN(CC4=C(c5ccc(Cl)cc5)CC(C)(C)CC4)CC3)cc2Oc2cnc3[nH]ccc3c2)cc1[N+](=O)[O-] [Example 45, (S)-2-((1H-pyrrolo[2,3-b]pyridin-5-yl)oxy)-4-(4-((4′-chloro-5,5-dimethyl-3,4,5,6-tetrahydro-[1,1′-biphenyl]-2-yl)methyl)piperazin-1-yl)-N-((4-((1-(1-imino-1-oxido-1λ^6-thiomorpholino)propan-2-yl)amino)-3-nitrophenyl)sulfonyl) benzamide]	121	
3	CC1(C)CCC(CN2CCN(c3ccc(C(=O)NS(=O)(=O)c4ccc(NCC5CCC(N=S(C)(C)=O)CC5)c([N+](=O)[O-])c4)c(Oc4cnc5[nH]ccc5c4)c3)CC2)=C(c2ccc(Cl)cc2)C1 (single isomer, unassigned) [Example 50A, 2-((1H-pyrrolo[2,3-b]pyridin-5-yl)oxy)-4-(4-((4′-chloro-5,5-dimethyl-3,4,5,6-tetrahydro-[1,1′-biphenyl]-2-yl)methyl)piperazin-1-yl)-N-((4-(((4-((dimethyl(oxo)-λ^6-sulfanylidene)amino)cyclohexyl)methyl)amino)-3-nitrophenyl)sulfonyl) benzamide]		3.5
106	CCN=S1(=O)CCN(CCNc2ccc(S(=O)(=O)NC(=O)c3ccc(N4CCN(CC5=C(c6ccc(Cl)cc6)CC(C)(C)CC5)CC4)cc3Oc3cnc4[nH]ccc4c3)cc2[N+](=O)[O-])CC1 [Example 34, 2-((1H-pyrrolo[2,3-b]pyridin-5-yl)oxy)-4-(4-((4′-chloro-5,5-dimethyl-3,4,5,6-tetrahydro-[1,1′-biphenyl]-2-yl)methyl)piperazin-1-yl)-A,-((4-((2-(1-(ethylimino)-1-oxido-1λ^6-thiomorpholino)ethyl)amino)-3-nitrophenyl)sulfonyl) benzamide]	38	
397	CC1(C)CCC(CN2CCN(c3ccc(C(=O)NS(=O)(=O)c4ccc(NCC(CF)N5CCP(C)(=O)CC5)c([N+](=O)[O-])c4)c(Oc4cnc5[nH]ccc5c4)c3)CC2)=C(c2ccc(Cl)cc2)C1 (stereo not drawn) [Example 13, 2-((1H-pyrrolo[2,3-b]pyridin-5-yl)oxy)-4-(4-((4′-chloro-5,5-dimethyl-3,4,5,6-tetrahydro-[1,1′-biphenyl]-2-yl)methyl)piperazin-1-yl)-N-((4-((3-fluoro-2-(4-methyl-4-oxido-1,4-azaphosphinan-1-yl)propyl)amino)-3-nitrophenyl)sulfonyl)benzamide]	615	
